# Measured values from US20250064741A1, “METHODS FOR ENHANCED NUCLEIC ACID DELIVERY” (CORNELL UNIVERSITY, priority 2021, published 2025).
# Tested on: mice
# Test: Screening drugs with macrophage/monocyte depletion capability for enhanced mRNA delivery (Fluc expression, MC3-LNP)
# Type: in vivo
# Settings: Fluc mRNA 0.2 mg/kg
# Experimental: FIGS. 6A-6B. Luciferase expression of pretreated mice injected with MC3-LNP loaded with Fluc mRNA (0.2 mg/kg).
# In this example, various small molecules or monoclonal antibodies with reported macrophage depletion capabilities were screened to evaluate the effectiveness to enhance mRNA delivery. Drugs used in this study include clodronate liposome (Lipo-Clodronate), anti-CD115, anti-CCR2, anti-Ly6C, anti-Gr-1 and zoledronate (10 μg, 50 μg and 100 μg).
# FIG. 5 lists treatment methods studied in this example. […] In a different experiment, zoledronate was encapsulated in liposomes (formulated with DSPC and cholesterol) and delivered to the mouse at different dosage.
structure (smiles),measurement,setting,value
O=P(O)(O)C(O)(Cn1ccnc1)P(=O)(O)O [zoledronate],mRNA delivery / Fluc expression of MC3-LNP in pretreated mice,10 μg of zoledronate,enhanced the mRNA delivery
same,Fluc expression of MC3-LNP in pretreated mice,high dose of zoledronate,decreased the Fluc expression
